Test results from patent EP3625243B1, “TAILORED CYCLODEPSIPEPTIDES AS POTENT NON-COVALENT SERINE PROTEASE INHIBITORS” (Universität Duisburg-Essen, priority 2017, dated 2018).
Like-named read-outs stand apart in the source and are kept apart here.

Tests used:
HTRA3 = HTRA3 (Homo sapiens, UniProt P83110); assay: Chromogenic enzyme activity assay, HTRA3
HTRA1 = HTRA1 (Homo sapiens, UniProt Q92743); assay: Chromogenic enzyme activity assay, HTRA1
HTRA2 = molecular target: T1, HTRA2 (Homo sapiens, UniProt O43464); assay: Chromogenic enzyme activity assay, HTRA2
T1 sequence (O43464 134-458): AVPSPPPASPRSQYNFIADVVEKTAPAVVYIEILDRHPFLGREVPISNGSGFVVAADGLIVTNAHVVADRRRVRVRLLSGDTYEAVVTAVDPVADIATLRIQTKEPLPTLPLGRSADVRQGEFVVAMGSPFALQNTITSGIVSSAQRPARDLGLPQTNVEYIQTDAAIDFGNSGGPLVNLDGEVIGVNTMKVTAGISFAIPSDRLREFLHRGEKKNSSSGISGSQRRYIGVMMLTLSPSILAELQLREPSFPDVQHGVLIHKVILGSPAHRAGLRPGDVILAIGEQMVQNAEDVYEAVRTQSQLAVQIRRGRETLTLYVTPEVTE

[1] = molecular target: T2, human pancreas chymotrypsin (Homo sapiens, UniProt P17538); assay: Chromogenic enzyme activity assay, chymotrypsin; format: biochemical; details: Table 2, substrate AAF-pNA, read-out: Ki Chymo- trypsin [a]
T2 construct: purchased Sigma-Aldrich SRP6509-100
T2 sequence (P17538 19-263): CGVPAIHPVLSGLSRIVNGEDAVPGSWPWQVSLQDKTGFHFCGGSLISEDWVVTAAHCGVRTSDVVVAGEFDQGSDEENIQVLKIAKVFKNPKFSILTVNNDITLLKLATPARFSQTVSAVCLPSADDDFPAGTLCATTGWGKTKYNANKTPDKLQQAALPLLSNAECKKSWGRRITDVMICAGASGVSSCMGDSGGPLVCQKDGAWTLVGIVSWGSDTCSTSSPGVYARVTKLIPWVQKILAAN

[2] = molecular target: T3, human neutrophil elastase (Homo sapiens, UniProt P08246); assay: Chromogenic enzyme activity assay, elastase; format: biochemical
T3 construct: purchased Enzo Life Sciences BML-SE284
T3 sequence (P08246 30-267): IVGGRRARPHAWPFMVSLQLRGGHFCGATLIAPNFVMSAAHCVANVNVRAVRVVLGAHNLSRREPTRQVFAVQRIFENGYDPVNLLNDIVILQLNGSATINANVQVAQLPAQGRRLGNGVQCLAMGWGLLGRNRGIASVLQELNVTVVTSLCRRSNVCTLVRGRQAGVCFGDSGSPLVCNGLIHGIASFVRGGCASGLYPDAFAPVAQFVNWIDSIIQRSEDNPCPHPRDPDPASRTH

bovine pancreas trypsin = molecular target: T4, bovine pancreas trypsin (Bos taurus, UniProt P00760); assay: Chromogenic enzyme activity assay, trypsin; format: biochemical; details: Table 2, read-out: Ki Trypsin [c]
T4 construct: purchased Sigma-Aldrich T1426
T4 sequence (P00760 24-246): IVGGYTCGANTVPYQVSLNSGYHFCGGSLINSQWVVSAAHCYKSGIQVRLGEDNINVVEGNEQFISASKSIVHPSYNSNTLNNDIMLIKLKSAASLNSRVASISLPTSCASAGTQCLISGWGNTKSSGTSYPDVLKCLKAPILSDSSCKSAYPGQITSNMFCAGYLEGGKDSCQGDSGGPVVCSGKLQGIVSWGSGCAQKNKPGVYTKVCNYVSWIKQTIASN

[3] = Table 2, substrate AAPV-pNA, read-out: Ki Elastase [b]
[4] = Table 3, read-out: Ki Elastase [b]

Chain of HTRA3 (P83110 111-436): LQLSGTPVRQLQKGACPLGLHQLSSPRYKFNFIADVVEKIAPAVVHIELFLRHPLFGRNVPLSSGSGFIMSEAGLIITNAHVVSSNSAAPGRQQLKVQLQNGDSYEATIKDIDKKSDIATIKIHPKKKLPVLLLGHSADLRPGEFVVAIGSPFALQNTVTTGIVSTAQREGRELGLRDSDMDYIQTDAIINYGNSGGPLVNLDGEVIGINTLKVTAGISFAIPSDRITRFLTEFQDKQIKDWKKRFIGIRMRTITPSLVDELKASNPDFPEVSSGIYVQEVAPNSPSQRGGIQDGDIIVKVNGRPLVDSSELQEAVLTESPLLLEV
Chain of HTRA1 (Q92743 158-480): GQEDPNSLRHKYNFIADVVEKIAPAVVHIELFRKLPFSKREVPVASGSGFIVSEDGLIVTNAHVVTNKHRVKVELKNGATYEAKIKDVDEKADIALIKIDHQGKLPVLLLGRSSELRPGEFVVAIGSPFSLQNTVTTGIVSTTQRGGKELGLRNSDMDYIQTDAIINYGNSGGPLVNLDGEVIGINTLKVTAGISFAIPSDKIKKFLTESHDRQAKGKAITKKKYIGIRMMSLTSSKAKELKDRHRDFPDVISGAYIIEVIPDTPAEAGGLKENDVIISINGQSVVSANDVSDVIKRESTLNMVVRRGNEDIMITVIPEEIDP

Row | SMILES | Ki (HTRA3) [nM] | Ki (HTRA1) [nM] | Ki (HTRA2) [nM] | Ki [1] [nM] | Ki [2, 4] [nM] | other results
1 | CC(C)C[C@H]1C(=O)N(C)[C@@H](Cc2ccccc2)C(=O)N[C@@H](C(C)C)C(=O)O[C@H](C)[C@H](NC(=O)[C@H](C)NC(=O)[C@H](C)NC(=O)OCc2ccccc2)C(=O)N[C@@H](C(C)C)C(=O)N[C@H]2CC[C@@H](O)N1C2=O [Ahp1] | 3000 ± 500 | 8200 ± 2700 | 4100 ± 400 | > 50000 | – | Ki [2, 3]: 19 ± 3 nM
2 | CC(C)C[C@H]1C(=O)N(C)[C@@H](Cc2ccccc2)C(=O)N[C@@H](C(C)C)C(=O)O[C@H](C)[C@H](NC(=O)[C@H](C)NC(=O)[C@H](C)NC(=O)OCc2ccccc2)C(=O)N[C@@H](Cc2ccccc2)C(=O)N[C@H]2CC[C@@H](O)N1C2=O [Ahp2] | > 50000 | > 50000 | > 50000 | – | – | Ki (bovine pancreas trypsin): > 50000 nM; Ki [2, 3]: > 50000 nM
3 | CC(C)C[C@H]1C(=O)N(C)[C@@H](Cc2ccccc2)C(=O)N[C@@H](C(C)C)C(=O)O[C@H](c2ccccc2)[C@H](NC(=O)[C@H](C)NC(=O)[C@H](C)NC(=O)OCc2ccccc2)C(=O)N[C@@H](C(C)C)C(=O)N[C@H]2CC[C@@H](O)N1C2=O [Ahp3] | – | – | – | > 50000 | – | –
4 | CC(C)C[C@H]1C(=O)N(C)[C@@H](Cc2ccccc2)C(=O)N[C@@H](C(C)C)C(=O)O[C@H](C)[C@H](NC(=O)[C@H](Cc2ccccc2)NC(=O)[C@H](C)NC(=O)OCc2ccccc2)C(=O)N[C@@H](C(C)C)C(=O)N[C@H]2CC[C@@H](O)N1C2=O [Ahp4] | – | – | – | > 50000 | – | HTRA2 inhibition potency relative to Ahp1 (HTRA2; compared with Ahp1): more than ten-fold more potent
5 | CC(C)[C@@H]1NC(=O)[C@@H](NC(=O)[C@H](C)NC(=O)[C@H](C)NC(=O)OCc2ccccc2)[C@@H](C)OC(=O)[C@H](C(C)C)NC(=O)[C@H](Cc2ccccc2)N(C)C(=O)[C@H](Cc2ccccc2)N2C(=O)[C@H](CC[C@H]2O)NC1=O [Ahp6] | – | – | – | > 50000 | – | –
6 | CC(C)C[C@H]1C(=O)N(C)[C@@H](C)C(=O)N[C@@H](C(C)C)C(=O)O[C@H](C)[C@H](NC(=O)[C@H](C)NC(=O)[C@H](C)NC(=O)OCc2ccccc2)C(=O)N[C@@H](C(C)C)C(=O)N[C@H]2CC[C@@H](O)N1C2=O [Ahp7] | > 50000 | > 50000 | 6900 ± 1500 | > 50000 | – | Ki [2, 3]: 110 ± 20 nM

Continued, in another order:

Row | Ki (HTRA3) [nM] | Ki (HTRA1) [nM] | Ki (HTRA2) [nM] | Ki [1] [nM] | Ki [2, 4] [nM] | SMILES | other results
7 | – | – | – | > 50000 | – | CC(C)C[C@H]1C(=O)N(C)[C@@H](Cc2ccccc2)C(=O)N[C@@H](Cc2ccccc2)C(=O)O[C@H](C)[C@H](NC(=O)[C@H](C)NC(=O)[C@H](C)NC(=O)OCc2ccccc2)C(=O)N[C@@H](C(C)C)C(=O)N[C@H]2CC[C@@H](O)N1C2=O [Ahp8] | –
8 | 480 ± 70 | 2400 ± 600 | 260 ± 30 | > 50000 | – | CC(C)C[C@H]1C(=O)N(C)[C@@H](Cc2ccccc2)C(=O)N[C@@H](C(C)C)C(=O)O[C@H](C(C)C)[C@H](NC(=O)[C@H](C)NC(=O)[C@H](C)NC(=O)OCc2ccccc2)C(=O)N[C@@H](C(C)C)C(=O)N[C@H]2CC[C@@H](O)N1C2=O [Ahp10] | Ki (HTRA2) (HTRA2; Table 2): sub-µM; Ki [2, 3]: 18 ± 4 nM
9 | 980 | 4260 | 260 | – | 26 | CC(C)C[C@H]1C(=O)N(C)[C@@H](Cc2ccccc2)C(=O)N[C@@H](C(C)C)C(=O)O[C@H](C)[C@H](NC(=O)[C@H](C)NC(=O)[C@H](C)NC(=O)OCc2ccccc2)C(=O)N[C@@H](C)C(=O)N[C@H]2CC[C@@H](O)N1C2=O [Ahp13] | –
10 | 1460 | 2970 | 700 | – | 470 | CC[C@@H]1NC(=O)[C@@H](NC(=O)[C@H](C)NC(=O)[C@H](C)NC(=O)OCc2ccccc2)[C@@H](C)OC(=O)[C@H](C(C)C)NC(=O)[C@H](Cc2ccccc2)N(C)C(=O)[C@H](CC(C)C)N2C(=O)[C@H](CC[C@H]2O)NC1=O [Ahp14] | –
11 | > 50000 | 7000 | 690 | – | 130 | CCC[C@@H]1NC(=O)[C@@H](NC(=O)[C@H](C)NC(=O)[C@H](C)NC(=O)OCc2ccccc2)[C@@H](C)OC(=O)[C@H](C(C)C)NC(=O)[C@H](Cc2ccccc2)N(C)C(=O)[C@H](CC(C)C)N2C(=O)[C@H](CC[C@H]2O)NC1=O [Ahp15] | –
12 | > 50000 | > 50000 | > 50000 | – | 500 | CCC(C)[C@@H]1NC(=O)[C@@H](NC(=O)[C@H](C)NC(=O)[C@H](C)NC(=O)OCc2ccccc2)[C@@H](C)OC(=O)[C@H](C(C)C)NC(=O)[C@H](Cc2ccccc2)N(C)C(=O)[C@H](CC(C)C)N2C(=O)[C@H](CC[C@H]2O)NC1=O (some centres unmarked) [Ahp16] | –
13 | 840 | > 50000 | 1380 | – | 160 | C=CC[C@@H]1NC(=O)[C@@H](NC(=O)[C@H](C)NC(=O)[C@H](C)NC(=O)OCc2ccccc2)[C@@H](C)OC(=O)[C@H](C(C)C)NC(=O)[C@H](Cc2ccccc2)N(C)C(=O)[C@H](CC(C)C)N2C(=O)[C@H](CC[C@H]2O)NC1=O [Ahp17] | –
14 | 17900 | > 50000 | – | – | 200 | C#CC[C@@H]1NC(=O)[C@@H](NC(=O)[C@H](C)NC(=O)[C@H](C)NC(=O)OCc2ccccc2)[C@@H](C)OC(=O)[C@H](C(C)C)NC(=O)[C@H](Cc2ccccc2)N(C)C(=O)[C@H](CC(C)C)N2C(=O)[C@H](CC[C@H]2O)NC1=O [Ahp18] | –
15 | – | – | – | – | > 50000 | CC(C)C[C@H]1C(=O)N(C)[C@@H](Cc2ccccc2)C(=O)N[C@@H](C(C)C)C(=O)O[C@H](C)[C@H](NC(=O)[C@H](C)NC(=O)[C@H](C)NC(=O)OCc2ccccc2)C(=O)N[C@@H](C2CCCCC2)C(=O)N[C@H]2CC[C@@H](O)N1C2=O [Ahp21] | Ki (HTRA3; read-out: Ki HTRA3 [a], Table 3, human HTRA proteases): > 50000 nM; Ki (HTRA1; read-out: Ki HTRA1 [a], Table 3, human HTRA proteases): > 50000 nM; Ki (HTRA2; read-out: Ki HTRA2 [a], Table 3, human HTRA proteases): > 50000 nM
